Data published in the NIST ThermoML archive (doi:10.1021/je700546r).
“And” between values parts separate entries of the source, which are not always exact repeats. Equal entries are not always repeated. Numbers after ± are expanded uncertainties.

Assay: molar heat capacity at saturation pressure
Details: Small (less than 1 g) adiabatic calorimetry

Molecule `ON=C1CCCCC1` [cyclohexanone oxime] has a molar heat capacity (224.01 K, Crystal 3) of 136.62 ± 0.76 J/K/mol, a molar heat capacity (224.62 K, Crystal 3) of 137.24 ± 0.76 J/K/mol and a molar heat capacity (224.76 K, Crystal 3) of 137.52 ± 0.76 J/K/mol. The molar heat capacity (225.92 K, Crystal 3) was 138.42 ± 0.77 J/K/mol, the molar heat capacity (226.48 K, Crystal 3) was 138.92 ± 0.77 J/K/mol and the molar heat capacity (226.5 K, Crystal 3) was 139.12 ± 0.77 J/K/mol. The molar heat capacity (227.85 K, Crystal 3) was 140.09 ± 0.78 J/K/mol, the molar heat capacity (228.24 K, Crystal 3) was 140.6 ± 0.78 J/K/mol and the molar heat capacity (228.33 K, Crystal 3) was 140.45 ± 0.78 J/K/mol. For the same molecule, the molar heat capacity (229.78 K, Crystal 3) was 141.6 ± 0.79 J/K/mol, the molar heat capacity (229.98 K, Crystal 3) was 141.91 ± 0.79 J/K/mol and the molar heat capacity (230.18 K, Crystal 3) was 141.86 ± 0.79 J/K/mol. The molar heat capacity (231.71 K, Crystal 3) was 143.03 ± 0.79 J/K/mol and 143.15 ± 0.79 J/K/mol, the molar heat capacity (232.03 K, Crystal 3) was 143.15 ± 0.79 J/K/mol and the molar heat capacity (233.43 K, Crystal 3) was 144.26 ± 0.8 J/K/mol. The molar heat capacity (233.64 K, Crystal 3) was 144.32 ± 0.8 J/K/mol, the molar heat capacity (233.87 K, Crystal 3) was 144.33 ± 0.8 J/K/mol and the molar heat capacity (235.14 K, Crystal 3) was 145.41 ± 0.8 J/K/mol. The molar heat capacity (235.57 K, Crystal 3) was 145.51 ± 0.8 J/K/mol, the molar heat capacity (235.71 K, Crystal 3) was 145.65 ± 0.8 J/K/mol and the molar heat capacity (236.85 K, Crystal 3) was 146.62 ± 0.81 J/K/mol. The molar heat capacity (237.5 K, Crystal 3) was 146.68 ± 0.81 J/K/mol, the molar heat capacity (237.54 K, Crystal 3) was 146.94 ± 0.81 J/K/mol and the molar heat capacity (238.56 K, Crystal 3) was 147.84 ± 0.81 J/K/mol. It also gave a molar heat capacity (239.36 K, Crystal 3) of 148.9 ± 0.82 J/K/mol, a molar heat capacity (239.43 K, Crystal 3) of 148.81 ± 0.82 J/K/mol and a molar heat capacity (239.79 K, Crystal 3) of 150.04 ± 0.83 J/K/mol. For the same molecule, the molar heat capacity (241.18 K, Crystal 3) was 153.75 ± 0.85 J/K/mol, the molar heat capacity (241.36 K, Crystal 3) was 153.6 ± 0.84 J/K/mol and the molar heat capacity (241.48 K, Crystal 3) was 154.07 ± 0.85 J/K/mol. For the same molecule, the molar heat capacity (242.99 K, Crystal 2) was 148.41 ± 0.82 J/K/mol, the molar heat capacity (243.3 K, Crystal 2) was 148.43 ± 0.82 J/K/mol and the molar heat capacity (243.42 K, Crystal 2) was 148.52 ± 0.82 J/K/mol. It also gave a molar heat capacity (244.82 K, Crystal 2) of 149.34 ± 0.82 J/K/mol, a molar heat capacity (245.25 K, Crystal 2) of 149.53 ± 0.82 J/K/mol and a molar heat capacity (245.37 K, Crystal 2) of 149.83 ± 0.83 J/K/mol. For the same molecule, the molar heat capacity (246.66 K, Crystal 2) was 150.69 ± 0.83 J/K/mol, the molar heat capacity (247.07 K, Crystal 2) was 151.16 ± 0.83 J/K/mol and the molar heat capacity (247.18 K, Crystal 2) was 150.98 ± 0.83 J/K/mol. For the same molecule, the molar heat capacity (248.48 K, Crystal 2) was 152.19 ± 0.84 J/K/mol, the molar heat capacity (248.78 K, Crystal 2) was 152.63 ± 0.84 J/K/mol and the molar heat capacity (250.29 K, Crystal 2) was 153.82 ± 0.84 J/K/mol. The molar heat capacity (250.48 K, Crystal 2) was 154.01 ± 0.84 J/K/mol, the molar heat capacity (252.11 K, Crystal 2) was 155.49 ± 0.85 J/K/mol and the molar heat capacity (252.36 K, Crystal 2) was 155.81 ± 0.85 J/K/mol. The molar heat capacity (253.91 K, Crystal 2) was 157.22 ± 0.86 J/K/mol, the molar heat capacity (254.12 K, Crystal 2) was 157.42 ± 0.86 J/K/mol and the molar heat capacity (255.71 K, Crystal 2) was 159 ± 0.87 J/K/mol. The molar heat capacity (255.8 K, Crystal 2) was 159.11 ± 0.87 J/K/mol, the molar heat capacity (257.47 K, Crystal 2) was 160.79 ± 0.88 J/K/mol and the molar heat capacity (257.5 K, Crystal 2) was 160.82 ± 0.88 J/K/mol. The molar heat capacity (259.14 K, Crystal 2) was 162.49 ± 0.89 J/K/mol, the molar heat capacity (259.28 K, Crystal 2) was 162.64 ± 0.89 J/K/mol and the molar heat capacity (260.8 K, Crystal 2) was 164.29 ± 0.89 J/K/mol. It also gave a molar heat capacity (261.05 K, Crystal 2) of 164.53 ± 0.9 J/K/mol, a molar heat capacity (262.46 K, Crystal 2) of 166.09 ± 0.9 J/K/mol and a molar heat capacity (262.82 K, Crystal 2) of 166.41 ± 0.9 J/K/mol. It also gave a molar heat capacity (264.11 K, Crystal 2) of 167.84 ± 0.91 J/K/mol, a molar heat capacity (264.58 K, Crystal 2) of 168.33 ± 0.91 J/K/mol and a molar heat capacity (265.75 K, Crystal 2) of 169.58 ± 0.92 J/K/mol. For the same molecule, the molar heat capacity (266.34 K, Crystal 2) was 170.21 ± 0.92 J/K/mol, the molar heat capacity (267.39 K, Crystal 2) was 171.43 ± 0.93 J/K/mol and the molar heat capacity (268.08 K, Crystal 2) was 172.13 ± 0.93 J/K/mol. For the same molecule, the molar heat capacity (269.02 K, Crystal 2) was 173.27 ± 0.94 J/K/mol, the molar heat capacity (269.82 K, Crystal 2) was 174.08 ± 0.94 J/K/mol and the molar heat capacity (270.64 K, Crystal 2) was 175.04 ± 0.95 J/K/mol. It also gave a molar heat capacity (271.56 K, Crystal 2) of 175.95 ± 0.95 J/K/mol, a molar heat capacity (272.26 K, Crystal 2) of 176.79 ± 0.95 J/K/mol and a molar heat capacity (273.28 K, Crystal 2) of 177.73 ± 0.96 J/K/mol. It also gave a molar heat capacity (273.87 K, Crystal 2) of 178.52 ± 0.96 J/K/mol, a molar heat capacity (275.02 K, Crystal 2) of 179.53 ± 0.97 J/K/mol and a molar heat capacity (275.47 K, Crystal 2) of 180.26 ± 0.97 J/K/mol. The molar heat capacity (276.74 K, Crystal 2) was 181.37 ± 0.98 J/K/mol, the molar heat capacity (277.08 K, Crystal 2) was 181.92 ± 0.98 J/K/mol and the molar heat capacity (278.45 K, Crystal 2) was 183.01 ± 0.99 J/K/mol. It also gave a molar heat capacity (278.67 K, Crystal 2) of 183.43 ± 0.99 J/K/mol, a molar heat capacity (280.15 K, Crystal 2) of 184.62 ± 1 J/K/mol and a molar heat capacity (280.26 K, Crystal 2) of 185.03 ± 1 J/K/mol. The molar heat capacity (281.85 K, Crystal 2) was 186.12 ± 1 J/K/mol and 186.38 ± 1 J/K/mol, the molar heat capacity (283.43 K, Crystal 2) was 187.69 ± 1 J/K/mol and the molar heat capacity (283.54 K, Crystal 2) was 187.5 ± 1 J/K/mol. The molar heat capacity (285.01 K, Crystal 2) was 188.93 ± 1 J/K/mol, the molar heat capacity (285.24 K, Crystal 2) was 188.79 ± 1 J/K/mol and the molar heat capacity (286.58 K, Crystal 2) was 189.97 ± 1 J/K/mol. It also gave a molar heat capacity (286.93 K, Crystal 2) of 189.9 ± 1 J/K/mol, a molar heat capacity (288.15 K, Crystal 2) of 191 ± 1 J/K/mol and a molar heat capacity (288.61 K, Crystal 2) of 190.97 ± 1 J/K/mol. The molar heat capacity (289.72 K, Crystal 2) was 191.92 ± 1 J/K/mol, the molar heat capacity (290.29 K, Crystal 2) was 191.83 ± 1 J/K/mol and the molar heat capacity (291.28 K, Crystal 2) was 192.69 ± 1 J/K/mol. For the same molecule, the molar heat capacity (291.97 K, Crystal 2) was 192.78 ± 1 J/K/mol, the molar heat capacity (292.14 K, Crystal 2) was 192.79 ± 1 J/K/mol and the molar heat capacity (292.85 K, Crystal 2) was 193.59 ± 1 J/K/mol. The molar heat capacity (293.65 K, Crystal 2) was 193.64 ± 1 J/K/mol, the molar heat capacity (293.7 K, Crystal 2) was 193.66 ± 1 J/K/mol and the molar heat capacity (294.41 K, Crystal 2) was 194.19 ± 1 J/K/mol. The molar heat capacity (295.26 K, Crystal 2) was 194.41 ± 1 J/K/mol, the molar heat capacity (295.32 K, Crystal 2) was 194.51 ± 1 J/K/mol and the molar heat capacity (295.97 K, Crystal 2) was 194.99 ± 1 J/K/mol. The molar heat capacity (296.81 K, Crystal 2) was 195.24 ± 1 J/K/mol, the molar heat capacity (297 K, Crystal 2) was 195.34 ± 1.1 J/K/mol and the molar heat capacity (297.53 K, Crystal 2) was 195.76 ± 1.1 J/K/mol. It also gave a molar heat capacity (298.36 K, Crystal 2) of 196.04 ± 1.1 J/K/mol, a molar heat capacity (298.66 K, Crystal 2) of 196.34 ± 1.1 J/K/mol and a molar heat capacity (299.09 K, Crystal 2) of 196.66 ± 1.1 J/K/mol. The molar heat capacity (299.91 K, Crystal 2) was 197.34 ± 1.1 J/K/mol, the molar heat capacity (300.33 K, Crystal 2) was 197.85 ± 1.1 J/K/mol and the molar heat capacity (300.64 K, Crystal 2) was 198.3 ± 1.1 J/K/mol. For the same molecule, the molar heat capacity (301.45 K, Crystal 2) was 198.75 ± 1.1 J/K/mol, the molar heat capacity (301.99 K, Crystal 1) was 196.75 ± 1.1 J/K/mol and the molar heat capacity (302.19 K, Crystal 1) was 195.88 ± 1.1 J/K/mol.
